# Test results as given in PubChem BioAssay (NCI).
#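 Following 48 hours of exposure in 96-well plates, responses at five concentrations were used to interpolate endpoints linearly. Definition used: TGI = concentration required for complete inhibition of growth.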
# Key:
# Assay in all cases: NCI-60 cell line screen, 48 h
# A498 renal = tested on: A498 renal
# CCRF-CEM leukemia = tested on: CCRF-CEM leukemia
# COLO 205 colon = tested on: COLO 205 colon
# M14 melanoma = tested on: M14 melanoma
# NCI-H460 lung = tested on: NCI-H460 lung
# NCI-H522 lung = tested on: NCI-H522 lung
# NCI/ADR-RES ovarian = tested on: NCI/ADR-RES ovarian
# RPMI-8226 leukemia = tested on: RPMI-8226 leukemia
# SK-MEL-5 melanoma = tested on: SK-MEL-5 melanoma
# SK-OV-3 ovarian = tested on: SK-OV-3 ovarian
# SNB-75 CNS = tested on: SNB-75 CNS
# SW-620 colon = tested on: SW-620 colon
# EKVX NSCLC = tested on: EKVX NSCLC
# TK-10 renal = tested on: TK-10 renal
Compound,TGI (A498 renal) [µM],TGI (CCRF-CEM leukemia) [µM],TGI (COLO 205 colon) [µM],TGI (M14 melanoma) [µM],TGI (NCI-H460 lung) [µM],TGI (NCI-H522 lung) [µM],TGI (NCI/ADR-RES ovarian) [µM],TGI (RPMI-8226 leukemia) [µM],TGI (SK-MEL-5 melanoma) [µM],TGI (SK-OV-3 ovarian) [µM],TGI (SNB-75 CNS) [µM],TGI (SW-620 colon) [µM],TGI (EKVX NSCLC) [µM],TGI (TK-10 renal) [µM]
CC1=C(C(=O)OC23CC4CC(CC(C4)C2)C3)C(c2ccccc2OC(F)F)C(C(=O)OC23CC4CC(CC(C4)C2)C3)=C(C)N1 (stereo unspecified),> 100,> 100,> 100,> 100,> 100,> 100,> 100,> 100,> 100,> 100,> 100,> 100,–,–
COc1ccc2c(c1)-c1c(c3ccccc3n1CCN1CCCCC1)CC2,> 100,74,29.9,> 55.8,32.4,28.6,34.4,36.3,30.1,53,> 100,81.2,70.5,54.6
COc1ccccc1NC(=S)Nc1cccc(C)n1,> 100,> 100,> 100,> 100,> 100,45.9,> 100,> 100,> 100,> 100,63.5,> 100,> 100,> 100
c1ccc2c(c1)n1c(N3CCOCC3)[n+]3ccccc3c1c1c3cccc[n+]3c(N3CCOCC3)n21,> 100,> 100,> 100,> 100,> 100,> 100,> 100,> 100,> 100,–,> 100,> 100,> 100,> 100
CCCOc1ccc(/C=C/C2=[N+](CCO)CCO2)cc1,> 100,> 100,> 100,> 100,> 100,> 100,> 100,> 100,> 100,> 100,> 100,> 100,> 100,> 100
NC(=O)CC1(O)C=CC(=O)C=C1,> 100,> 100,> 100,> 100,> 100,> 100,> 100,> 100,> 100,> 100,> 100,> 100,> 100,> 100
COC(=O)c1cccc(C)c1C1CN=NC12Cc1c(ccc(C)c1C)C2=O (stereo unspecified),> 100,> 100,–,> 100,> 100,> 100,> 100,96.2,17.7,–,> 100,> 100,57.9,> 100
CN(C)Cc1cc(C(=O)/C=C/c2c(Cl)cccc2Cl)cc(CN(C)C)c1O,22.5,59,7.66,18.9,13,10.7,41,39,13.9,–,15.7,13.9,23.2,27.8
